Test results published in patent US12275712B2, “Triterpene derivatives as HIV inhibitors” (HETERO LABS LIMITED, priority 2019, dated 2025).

How the values were obtained:
[1] = test system: pNL4-3 WT; assay: Antiviral activity against pNL4-3 WT strain in MT4 cells (p24 estimation); format: cell-based, HIV-1; conditions: Human immunodeficiency virus 1, MT4, 96 h, read-out: pNL4-3 WT IC50
Experimental: (§1) MT4 cells were Transfected with HIV-1 Plasmid (pNL4-3-WT & V7A) (Cells were incubating with required number of TCID50 of HIV-1 for 1.5 h at 37° C.). After infection, the infected cells were plated at the concentration of 3×10^4 cells per well in 96 well plate. Test compound was added to the test plate in defined format with the final concentration of DMSO is not more than 1%. Incubation was carried out in CO2 incubator for 4 days for viral infection. At the end of incubation period an aliquot from each well was taken for p24 estimation. p24 estimation was carried out using Advance biosciences kit as per the procedure detailed by supplier.

[2] = test system: pNL4-3 V7A; assay: Antiviral activity against pNL4-3 V7A strain in MT4 cells (p24 estimation); format: cell-based, HIV-1; conditions: Human immunodeficiency virus 1, MT4, 96 h, read-out: pNL4-3 V7A IC50
Experimental: as §1

[3] = test system: HIV-1 strain 92HT599; assay: Antiviral activity against HIV-1 strain 92HT599 in MT2 cells (p24 estimation); format: cell-based; conditions: Human immunodeficiency virus 1; HIV-1 strain 92HT599, MT2 cells, ~96 hours, p24; read-out: IC50
Experimental: MT2 cells were infected with HIV-1 strain 92HT599 (10 TCID 50/30000 cells). The infected cells were plated at the concentration of ˜30,000 cells per well in 96 well plate. Test compound was added to the micro plate in defined format with the final concentration of DMSO (vehicle) is not more than 1%. Incubation was carried out in CO2 incubator for ˜96 hours for viral infection. At the end of incubation period an aliquot from each well was taken for p24 estimation. The quantitation of p24 is an index for antiviral activity of the compound. Percent inhibition was calculated with reference to control values (vehicle controls). p24 estimation was carried out using Advance biosciences kit as per the procedure detailed by supplier.
The IC50 (nM) values are set forth in below Table-1.

Compound | IC50 [1] | IC50 [2] | IC50 [3]
COCCOCCOCCO[C@H](C)[C@@H](CN[C@]12CC[C@@H](C3(C)CC3)[C@@H]1[C@H]1CC[C@@H]3[C@@]4(C)CC[C@H](OC(=O)[C@H]5C[C@@H](C(=O)O)C5(C)C)C(C)(C)[C@@H]4CC[C@@]3(C)[C@]1(C)CC2)N1CCS(=O)(=O)CC1 [Example 18, (1R,3S)-3-((((1R,3aS,5aR,5bR,7aR,9S,11aR,11bR,13aR,13bR)-3a-(((12R,13R)-13-(1,1-dioxidothiomorpholino)-12-methyl-2,5,8,11-tetraoxatetradecan-14-yl)amino)-5a,5b,8,8,11a-pentamethyl-1-(1-methylcyclopropyl)icosahydro-1H-cyclopenta[a]chrysen-9-yl)oxy)carbonyl)-2,2-dimethylcyclobutane-1-carboxylic acid] | < 10 nM | 1 to 50 nM | < 10 nM
C[C@H](F)[C@@H](CN[C@]12CC[C@@H](C3(C)CC3)[C@@H]1[C@H]1CC[C@@H]3[C@@]4(C)CC[C@H](OC(=O)[C@H]5C[C@@H](C(=O)O)C5(C)C)C(C)(C)[C@@H]4CC[C@@]3(C)[C@]1(C)CC2)N1CCS(=O)(=O)CC1 [Example 12, (1R,3S)-3-((((1R,3aS,5aR,5bR,7aR,9S,11aR,11bR,13aR,13bR)-3a-(((2R,3 S)-2-(1,1-dioxidothiomorpholino)-3-fluorobutyl)amino)-5a,5b,8,8,11a-pentamethyl-1-(1-methylcyclopropyl)icosahydro-1H-cyclopentachrysen-9-yl)oxy)carbonyl)-2,2-di methylcyclobutane-1-carboxylic acid] | 10 to 50 nM | > 100 nM | > 20 nM
CC1([C@@H]2CC[C@]3(NCC(C)(C)N4CCS(=O)(=O)CC4)CC[C@]4(C)[C@H](CC[C@@H]5[C@@]6(C)CC[C@H](OC(=O)[C@H]7C[C@@H](C(=O)O)C7(C)C)C(C)(C)[C@@H]6CC[C@]54C)[C@@H]23)CC1 [Example 1, (1R,3S)-3-((((1R,3aS,5aR,5bR,7aR,9S,11aR,11bR,13aR,13bR)-3a-((2-(1,1-dioxidothiomorpholino)-2-methylpropyl)amino)-5a,5b,8,8,11a-pentamethyl-1-(1-methylcyclopropyl)icosahydro-1H-cyclopentachrysen-9-yl)oxy)carbonyl)-2,2-dimethyl cyclobutane-1-carboxylic acid] | > 50 nM | > 100 nM | > 20 nM
C[C@@H](CN[C@]12CC[C@@H](C3(C)CC3)[C@@H]1[C@H]1CC[C@@H]3[C@@]4(C)CC[C@H](OC(=O)[C@H]5C[C@@H](C(=O)O)C5(C)C)C(C)(C)[C@@H]4CC[C@@]3(C)[C@]1(C)CC2)N1CCS(=O)(=O)CC1 [Example 2, (1R,3S)-3-((((1R,3aS,5aR,5bR,7aR,9S,11aR,11bR,13aR,13bR)-3a-(((S)-2-(1,1-dioxidothiomorpholino)propyl)amino)-5a,5b,8,8,11a-pentamethyl-1-(1-methylcyclopropyl)icosahydro-1H-cyclopentachrysen-9-yl)oxy)carbonyl)-2,2-dimethyl cyclobutane-1-carboxylic acid] | < 10 nM | 1 to 50 nM | < 10 nM
CC1([C@@H]2CC[C@]3(NC[C@@H](CO)N4CCS(=O)(=O)CC4)CC[C@]4(C)[C@H](CC[C@@H]5[C@@]6(C)CC[C@H](OC(=O)[C@H]7C[C@@H](C(=O)O)C7(C)C)C(C)(C)[C@@H]6CC[C@]54C)[C@@H]23)CC1 [Example 8, (1R,3S)-3-((((1R,3aS,5aR,5bR,7aR,9S,11aR,11bR,13aR,13bR)-3a-(((S)-2-(1,1-dioxidothiomorpholino)-3-hydroxypropyl)amino)-5a,5b,8,8,11a-pentamethyl-1-(1-methylcyclopropyl)icosahydro-1H-cyclopenta[a]chrysen-9-yl)oxy)carbonyl)-2,2-dimethylcyclobutane-1-carboxylic acid] | < 10 nM | 1 to 50 nM | < 10 nM
